Experiments:
[1] = system: A431 cells; experiment: Cell proliferation (Alamar Blue) assay, A431 cells; type: cell-based; settings: Homo sapiens, A-431; A431 cells, 24 h compound treatment, Alamar Blue; read-out: IC50 (μM) A431
Protocol: (§1) Cell viability assay was performed to assess the potency of the compounds in human cancer cell lines 786-0 (renal cell carcinoma) and SJSA-1 (osteosarcoma). Additional cell lines, such as pancreatic cancer cell lines (Panc 02.13, BxPC-3, Panc 12, Panc 02.03, Panc 6.03, PSN-1, HPAC, and Capan-1), prostate cancer cell lines (PC-3, DU145, […], NCI-H660, 1PH1 LNCaP, BM-1604, and MDA PCa 2b), etc., can be tested in a similar method.
(§2) Cells (SJSA-1, 786-0 and A431) were seeded (5000 cells/100 μL/well) in 96-well tissue culture plate and incubated at 37° C./500 CO2 for 16-24 hours. The cells were then treated with compounds (25 μL of 5×). The compound concentrations were 10-0.0005 μM prepared in 3-fold serial dilutions with final DMSO concentration of 1%. The plates were then incubated for 24 h at 37° C./[…] in a moist environment. Then Alamar Blue™ reagent (final concentration 1×-12.5 μL) was added to each well and incubated for 1.5 hours at 37° C./500 CO2. The plates were read on fluorescence reader at 540 nm excitation and 590 nm emission wavelengths. The IC50 values were subsequently determined using a sigmoidal dose-response curve (variable slope) in GraphPad Prism® 5 software. Tables A-3 and B-11 show cell proliferation data for exemplary compounds as described herein.

[2] = system: SJSA-1 (osteosarcoma) cells; experiment: Cell proliferation (Alamar Blue) assay, SJSA-1 cells; type: cell-based; settings: Homo sapiens, 24 h compound treatment
Protocol: as §1, §2

[3] = system: 786-O (renal cell carcinoma) cells; experiment: Cell proliferation (Alamar Blue) assay, 786-O cells; type: cell-based; settings: Homo sapiens, 786-0; 786-O cells, 24 h compound treatment, Alamar Blue; read-out: IC50 (μM) 786-O
Protocol: as §1, §2

[4] = system: 786-O cells + Ferrastatin-1; experiment: GPX4 inhibition assay: cell proliferation (Alamar Blue) in 786-O cells with ferrostatin rescue; type: cell-based, human; settings: 786-O cells in presence of Ferrastatin-1 (rescue), read-out: IC50 (μM) 786-O + Ferrastatin-1
Protocol: as §2
Studies have shown that lipophilic antioxidants, such as ferrostatin, can rescue cells from GPX4 inhibition-induced ferroptosis. For instance, mesenchymal state GPX4-knockout cells can survive in the presence of ferrostatin, however, when the supply of ferrostatin is terminated, these cells undergo ferroptosis (see, e.g., Viswanathan et al., Nature 547:453-7, 2017). […] Accordingly, the ability of a molecule to induce ferroptotic cancer cell death, and that such ability is admonished by the addition of ferrostatin, is clear indication that the molecule is an GPX4 inhibitor. Cell proliferation data for exemplary compounds with and without ferrostatin can be seen in Table A-3.

SMILES | IC50 [1] | IC50 [2] | IC50 [3] | IC50 [4]
C#CC(=O)N1[C@@H](CCCC)Cc2cc(OC)ccc2[C@H]1c1ccc(NC(=O)C2CCC2)cc1 [Compound B-19, N-(4-((1R,3S)-3-butyl-6-methoxy-2-propioloyl-1,2,3,4-tetrahydroisoquinolin-1-yl)phenyl) cyclobutane carboxamide] | 6.3 µM | 0.52 µM | 0.569 µM | 
C#CC(=O)N1[C@@H](CCCC)Cc2cc(OC)ccc2[C@@H]1c1ccc(NC(=O)C2CCC2)cc1 [Compound B-20, N-{4-[(1S,3S)-3-butyl-6-methoxy-2-(prop-2-ynoyl)-1,2,3,4-tetrahydroisoquinolin-1-yl]phenyl}cyclobutanecarboxamide] | 6.14 µM | 0.021 µM | 0.02 µM | 
C#CC(=O)N1[C@@H](CCCC)Cc2cc(OC)ccc2[C@@H]1c1cccc(NC23CC4CC(CC(C4)C2)C3)c1 [Compound B-74] | 3.06 µM |  | 0.025 µM | 1.91 µM
C#CC(=O)N1[C@@H](CCCC)Cc2cc(OC)ccc2[C@H]1c1ccc(NC23CC4CC(CC(C4)C2)C3)c(C#N)c1 [Compound B-81] | 4.9 µM |  | 0.01 µM | ≥ 10 µM
C#CC(=O)N1[C@@H](CCCC)Cc2cc(OC)ccc2[C@@H]1c1ccc(NC23CC4CC(CC(C4)C2)C3)cc1F [Compound B-83] | 7.87 µM |  | 2.79 µM | 6.59 µM
C#CC(=O)N1[C@@H](CCCC)Cc2cc(OC)ccc2[C@@H]1c1ccc(NC23CC4CC(CC(C4)C2)C3)c(F)c1 [Compound B-84] | 0.881 µM |  | 0.037 µM | 0.056 µM

Further molecules by falling IC50 [3], results first:

IC50 [1] | IC50 [2] | IC50 [3] | IC50 [4] | SMILES
9.96 µM | 0.05 µM | 0.041 µM |  | C#CC(=O)N1[C@@H](CCCC)Cc2cc(OC)ccc2[C@@H]1c1ccc(NC2CCC2)cc1 [Compound B-22, 1-((1S,3S)-3-butyl-1-(4-(cyclobutylamino)phenyl)-6-methoxy-3,4-dihydroisoquinolin-2(1H)-yl)prop-2-yn-1-one]
 | 0.2 µM | 0.037 µM |  | C#CC(=O)N1[C@@H](CCCC)Cc2cc(OC)ccc2[C@@H]1c1ccc(NC(=O)c2ccnc(C)c2)cc1 [Compound B-49, N-(4-((1S,3S)-3-butyl-6-methoxy-2-propioloyl-1,2,3,4-tetrahydroisoquinolin-1-yl)phenyl)-2-methylisonicotinamide]
1.84 µM |  | 0.024 µM | 1.71 µM | C#CC(=O)N1[C@@H](CCCC)Cc2cc(OC)ccc2[C@@H]1c1cc(F)c(NC23CC4CC(CC(C4)C2)C3)c(F)c1 [Compound B-82]
7 µM |  | 0.017 µM | 1 µM | C#CC(=O)N1[C@@H](CCCC)Cc2cc(OC(F)(F)F)ccc2[C@@H]1c1ccc(NC23CC4CC(CC(C4)C2)C3)cc1 [Compound B-79]
0.557 µM |  | 0.012 µM | 1.21 µM | C#CC(=O)N1[C@@H](CCCC)Cc2cc(C(F)(F)F)ccc2[C@@H]1c1ccc(NC23CC4CC(CC(C4)C2)C3)cc1 [Compound B-77]
0.569 µM |  | 0.004 µM | 0.662 µM | C#CC(=O)N1[C@@H](CCCC)Cc2cc(C#N)ccc2[C@@H]1c1ccc(NC23CC4CC(CC(C4)C2)C3)cc1 [Compound B-78]

Reference: US20240092739A1, “COMPOUNDS AND METHODS OF USE” (Ferro Therapeutics, Inc, priority 2020, published 2024)
